The subject of series [1] is Kuramochi. As to the kind of experiment: cells. To be noted: Homo sapiens, 72 h, read-out: Cytotoxicity LC50 Kuramochi. The format is cell-based. As for the experimental part:
(§1) Following their identification, compounds 1–5 were assessed for cytotoxicity in two high-grade ovarian cancer cell lines, OVCAR4 and Kuramochi. Potential for selective cytotoxicity was evaluated using two non-cancerous mouse cell lines representing the putative progenitor cells of ovarian cancer, murine ovarian surface epithelial (MOSE) and murine oviductal epithelial (MOE). […] Generally speaking, this para-quinone scaffold is not an attractive lead, as higher toxicity in non-tumorigenic cell lines confers serious overall toxicity.
(§2) Human ovarian OVCAR4 and Kuramochi cancer cells were maintained in RPMI 1640 (11875-093, Life-technologies; Carlsbad, CA, USA) supplemented with 10% FBS (16000-044, Life-technologies; Carlsbad, CA, USA) and 1% penicillin/streptomycin. Non-cancerous murine ovarian surface epithelium (MOSE) and murine oviductal epithelium (MOE) cells were maintained as previously reported. Concentration-response experiments were performed as previously described for 72 h.

The subject of series [2] is OVCAR4. As to the kind of experiment: cells. In kind it is cell-based. To be noted: Homo sapiens, OVCAR-4, 72 h, read-out: Cytotoxicity LC50 OVCAR4. How it is done:
as §1, §2

Series [3] has as its system M. tuberculosis H37Rv ATCC 27294. Briefly: Microplate alamar blue assay (MABA), replicating M. tuberculosis. The format is cell-based. To be noted: for MIC: Mycobacterium tuberculosis, MIC = lowest concentration giving ≥90% growth inhibition, averaged from triplicates.
For series [4] the test system is unchanged. As to the kind of experiment: Low oxygen recovery assay (LORA), non-replicating M. tuberculosis. The format is cell-based. To be noted: Mycobacterium tuberculosis.
Series [5] relates to OVCAR4, Kuramochi, MOSE and MOE cell lines. Briefly: Cytotoxicity panel of cancerous and non-cancerous cell lines (overall statements, selectivity). The format is cell-based. As to conditions: for Cytotoxicity in the cell line panel (in words): OVCAR4, Kuramochi, MOSE, MOE. As for the experimental part: as §1, §2
Series [6] relates to panel of Gram-negative and Gram-positive bacteria. More on the design: method as in PMID 2925509. To be noted: cited from earlier work.
Series [7] deals with wide range of cancer cell lines. As to conditions: previous reports; cited from earlier work.
For series [8], the system named is L1210 lymphocytic leukemia cells. More on the design: method as in PMID 11395569. As to conditions: L1210 lymphocytic leukemia cells in vitro; read-out: IC50 range, inhibition of tumor cell proliferation and viability; cited from earlier work.
For series [9], the system named is Eimeria tenella. Also on record: method as in PMID 7451359, PMID 7451360. To be noted: apicomplexan poultry parasite Eimeria tenella; cited from earlier work.
In series [10] the test system is two fungal species, a human parasite, and several Gram-negative and Gram-positive bacteria. Also on record: method as in PMID 7451359, PMID 7451360. As to conditions: cited from earlier work.

Values after ≈ are worked out from the molar mass of the structure shown. A value given as a limit tells only on which side of the number the result lay.

What is called MIC is the smallest concentration in the dilution series that meets the test's criterion for growth inhibition.

For `C=C[C@@]1(C)CCC2=C(CC[C@H]3C(C)(C)[C@@H](O)C(=O)C[C@]23C)C1` [Compound 1, isopimara-2-one-3-ol-8,15-diene], the CC50 in series [1] and in [2] was more than 33.1 µM in each case. The “Activity in MABA (in words)” value in series [3] is “lacked significant activity”. The minimum inhibitory concentration (MIC) in series [3] was 19.4 µg/mL (≈ 64.1 µM); in series [4], more than 50 µg/mL. In addition, the “Cytotoxicity in the cell line panel (in words)” value (from here on “Cytotoxicity”) in series [5] was “not significantly active”.

In the case of `Cc1cc(O)c2c(c1)COC1=C2C(=O)c2cccc(O)c2C1=O` [Compound 2, lagumycin B], the CC50 in series [1] and in series [2] was more than 32.5 µM in each case. Further, the MIC in series [3] was determined as 2.01 µg/mL (≈ 6.52 µM); in series [4], 25.7 µg/mL (≈ 83.4 µM).

On to `Cc1cc(O)c2c3c(c(O)cc2c1)C(=O)c1c(O)cccc1C3=O` [Compound 3, dehydrorabelomycin], for which the CC50 was found to be 6.72 µM in [1] and 11 µM in [2]. For the same compound, the results for the MIC in series [3] and in [4] were 1.01 µg/mL (≈ 3.15 µM) and 19.6 µg/mL (≈ 61.2 µM), respectively. In series [5], the “Cytotoxicity” value is given as “non-specifically cytotoxic”. Besides, the “Antibacterial activity (in words)” value in series [6] was “no detectable activity”. Moreover, in series [7], the “Inhibition of cancer cell lines (in words)” value is “inhibited a wide range of cancer cell lines at micromolar potency”.

As for `Cc1cc(O)c2c3c(ncc2c1)C(=O)c1c(O)cccc1C3=O` [Compound 4, phenanthroviridone], the CC50 in series [1] turned out to be 1.11 µM; in series [2] it was 4.82 µM. Besides, the MIC in [3] was 0.72 µg/mL (≈ 2.36 µM); in [4], 17.8 µg/mL (≈ 58.3 µM). Moreover, in series [5], the “Cytotoxicity” value is given as “non-specifically cytotoxic”.

As for `COc1cc(C)cc2c(=O)oc3c(c12)C(=O)c1cccc(O)c1C3=O` [Compound 5, WS-5995 A], the CC50 in [1] turned out to be 18.6 µM; in series [2], 127 µM. Also, in [3], the “Activity in MABA (in words)” value is recorded as “lacked significant activity”. For the same compound, the MIC in [3] was 22.7 µg/mL (≈ 67.5 µM); in series [4] it was more than 50 µg/mL. The “Greater activity toward Kuramochi ovarian cancer cells” value in series [5] (Kuramochi versus the other cell lines of the panel) is given as “approximately seven-fold”. In addition, the “Cytotoxicity” value in series [5] is listed as “enhanced cytotoxicity against the Kuramochi cell line when compared to non-tumorigenic cell lines”. In addition, the IC50 in [8] was 0.24 to 0.65 µM. In series [9], the “Anticoccidial activity (in words)” value is listed as “anticoccidial activity”. Moreover, the “Biological activity against antimicrobial panel (in words)” value in series [10] was “no significant biological activity”.

As for `COc1cccc2c1C(=O)c1c(O)c3c(c(O)c1C2=O)C[C@@](O)(C(=O)CO)C[C@@H]3O[C@H]1C[C@H](N)[C@H](O)[C@H](C)O1` [Doxorubicin, reference compound], the CC50 in [1] and in series [2] was less than 0.078 µM in each case.

(Values after paper PMC4584356, “A Pimarane Diterpene and Cytotoxic Angucyclines from a Marine-Derived Micromonospora sp. in Vietnam’s East Sea” (Marine Drugs, 2015).)
